One experiment addresses T1, PDGFRβ (Homo sapiens, UniProt P09619).
T1 construct: purchased BPS
Briefly: In vitro enzymology inhibitory activity (Caliper mobility shift kinase assay). The experiment is classed as biochemical. The conditions noted are these: reaction 5 hour at 28° C., FAM-labelled peptide and ATP. On the procedure:
(§1) • (1) Preparation of agents and compounds • (1) 1-fold kinase buffer without MnCl2 (50 mM HEPES, pH=7.5, 0.0015% Brij-35, 10 mM MgCl2, 2 mM DTT) • (2) 1-fold kinase buffer with MnCl2 (50 mM HEPES, pH=7.5, 0.0015% Brij-35, 10 mM MgCl2, 10 mM MnCl2, 2 mM DTT); • (3) Termination solution (100 mM HEPES, pH=7.5, 0.015% Brij-35, 0.2% Coating Reagent #3, 50 mM EDTA); • (4) 2.5-fold kinase solution (the VEGFR2, FGFR1, FGFR3, PDGFRβ kinases were added to the 1-fold kinase buffer respectively to prepare the corresponding 2.5-fold kinase solutions); • (5) 2.5-fold substrate solution: FAM-labelled peptide and ATP were added to the 1-fold kinase buffer to prepare a peptide solution; • (6) 4-fold dilution of the compound solution: the compound was accurately weighed, and dissolved in DMSO. The mixture was mixed sufficiently and evenly to prepare a 10 mM solution. Then the solution was diluted with DMSO to 500 μM, and 4-fold serial dilutions were done at 10 concentrations with a highest concentration of 50μM.
(§2) The calculated inhibition ratio (%)=(max. conversion−sample conversion)/(max. conversion−min. conversion)×100
(§3) The curve fitting was done with the software Xlfit to obtain the IC50 value.

The next experiment deals with T2, FGFR3 (Homo sapiens, UniProt P22607).
T2 construct: purchased Carna
T2 sequence (P22607 23-806): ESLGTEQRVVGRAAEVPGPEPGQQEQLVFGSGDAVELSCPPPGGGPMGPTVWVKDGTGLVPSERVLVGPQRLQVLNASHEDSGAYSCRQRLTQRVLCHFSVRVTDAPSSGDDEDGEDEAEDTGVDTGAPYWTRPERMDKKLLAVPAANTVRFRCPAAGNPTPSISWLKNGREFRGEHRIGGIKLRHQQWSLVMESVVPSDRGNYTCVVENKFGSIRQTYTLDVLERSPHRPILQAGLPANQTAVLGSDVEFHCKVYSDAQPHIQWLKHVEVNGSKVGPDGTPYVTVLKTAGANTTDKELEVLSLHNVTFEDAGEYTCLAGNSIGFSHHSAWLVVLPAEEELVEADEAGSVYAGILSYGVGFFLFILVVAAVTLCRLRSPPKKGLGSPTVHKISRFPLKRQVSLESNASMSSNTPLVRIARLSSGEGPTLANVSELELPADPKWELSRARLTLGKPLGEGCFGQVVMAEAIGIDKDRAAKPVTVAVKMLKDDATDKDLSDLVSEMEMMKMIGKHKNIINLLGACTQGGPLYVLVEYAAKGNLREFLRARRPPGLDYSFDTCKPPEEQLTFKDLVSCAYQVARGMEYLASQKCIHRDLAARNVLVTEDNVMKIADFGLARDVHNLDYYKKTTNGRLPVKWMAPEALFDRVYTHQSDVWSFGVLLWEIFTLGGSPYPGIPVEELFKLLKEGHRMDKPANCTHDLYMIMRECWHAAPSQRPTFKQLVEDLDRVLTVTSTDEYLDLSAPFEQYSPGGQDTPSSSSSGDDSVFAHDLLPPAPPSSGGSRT
The experiment is described as above. The class given is biochemical. Particulars: reaction 1 hour at 28° C., FAM-labelled peptide and ATP. On the procedure: as §1, §2, §3

The next experiment addresses T3, VEGFR2 (Homo sapiens, UniProt P35968).
T3 construct: purchased Carna
The experiment is described as above. The experiment is classed as biochemical. Particulars: reaction 1 hour at 28° C., FAM-labelled peptide and ATP. The protocol: as §1, §2, §3

A further experiment concerns the target T4, FGFR1 (Homo sapiens, UniProt P11362).
T4 construct: purchased Carna
The experiment is described as above. The class given is biochemical. The conditions noted are these: reaction 1 hour at 28° C., FAM-labelled peptide and ATP. The protocol: as §1, §2, §3

The next experiment relates to HUVEC cells. Briefly: In vitro cellular inhibitory activity, h-VEGF-A stimulated HUVEC proliferation. The class given is cell-based. Particulars: Homo sapiens, h-VEGF-A 10 ng/ml, incubated for 89 hours, absorbance at 490 nm, read-out: ED50 for the HUVEC in vitro cells. The protocol: (§4) (1) Thawing cells and Passing cells.
(§5) The 3T3 cells were resuspended in a culture medium containing 10% fetal bovine serum, wherein the cell concentration was 5×10^4/ml. The cell suspension was added to a 96-well plate with 100 μL per well, and incubated overnight; the HUVEC cells were resuspended in a culture medium containing 10% heat-inactivated fetal bovine serum, wherein the cell concentration was 7.5×10^4/ml. The cell suspension was added to a 96-well plate with 100 μL per well. • (3) Treating with drugs: the compounds were diluted to different concentrations, and 60 μLh-PDGF-BB (3T3 cells) and 40 ng/ml h-VEGF-A (HUVEC cells) were added and incubated for 1 hour. • (4) 100 μL of a solution containing the compound and h-PDGF-BB (h-VEGF-A, for the HUVEC cells) was added to a cell culture plate, wherein the final concentration of h-PDGF-BB was 10 ng/ml, the final concentration of h-VEGF-A was 10 ng/ml, and the final concentration for the compounds were 10, 3.3333, 1.1111, 0.3704, 0.1235, 0.0412, 0.0137, 0.0046, and 0.0015 μM. The plate was incubated for 40 hours, and the HUVEC cells were incubated for 89 hours. To each well was added 20 μL Promega Substrate, and the plate was incubated at 37° C. for 7.5 hours, and the HUVEC cells were incubated for 11.5 hours. Then the plate was placed in a microplate reader to read the absorbance at 490 nm. • (5) Data processing
(§6) The curve of the compound concentration vs. Net OD was plotted, wherein Net OD=Compound OD−min. OD. ED50 was calculated according to the following equation: Conc. ED50(x)=(y−b)/a, y=Calculated Net OD for IC50, a=slope, b=intercept.

The next experiment concerns 3T3 cells. Nature of the experiment: In vitro cellular inhibitory activity, h-PDGF-BB stimulated 3T3 proliferation. The experiment is classed as cell-based. The conditions noted are these: Mus musculus, NIH3T3; h-PDGF-BB 10 ng/ml, incubated for 40 hours, absorbance at 490 nm; read-out: ED50 for the 3T3 in vitro cells. On the procedure:
as §4, §5, §6

Structures can show the parent of a compound that is named as a salt.

Broadly, the IC50 is the concentration needed to halve the response being measured.

T3 sequence (P35968 20-1356): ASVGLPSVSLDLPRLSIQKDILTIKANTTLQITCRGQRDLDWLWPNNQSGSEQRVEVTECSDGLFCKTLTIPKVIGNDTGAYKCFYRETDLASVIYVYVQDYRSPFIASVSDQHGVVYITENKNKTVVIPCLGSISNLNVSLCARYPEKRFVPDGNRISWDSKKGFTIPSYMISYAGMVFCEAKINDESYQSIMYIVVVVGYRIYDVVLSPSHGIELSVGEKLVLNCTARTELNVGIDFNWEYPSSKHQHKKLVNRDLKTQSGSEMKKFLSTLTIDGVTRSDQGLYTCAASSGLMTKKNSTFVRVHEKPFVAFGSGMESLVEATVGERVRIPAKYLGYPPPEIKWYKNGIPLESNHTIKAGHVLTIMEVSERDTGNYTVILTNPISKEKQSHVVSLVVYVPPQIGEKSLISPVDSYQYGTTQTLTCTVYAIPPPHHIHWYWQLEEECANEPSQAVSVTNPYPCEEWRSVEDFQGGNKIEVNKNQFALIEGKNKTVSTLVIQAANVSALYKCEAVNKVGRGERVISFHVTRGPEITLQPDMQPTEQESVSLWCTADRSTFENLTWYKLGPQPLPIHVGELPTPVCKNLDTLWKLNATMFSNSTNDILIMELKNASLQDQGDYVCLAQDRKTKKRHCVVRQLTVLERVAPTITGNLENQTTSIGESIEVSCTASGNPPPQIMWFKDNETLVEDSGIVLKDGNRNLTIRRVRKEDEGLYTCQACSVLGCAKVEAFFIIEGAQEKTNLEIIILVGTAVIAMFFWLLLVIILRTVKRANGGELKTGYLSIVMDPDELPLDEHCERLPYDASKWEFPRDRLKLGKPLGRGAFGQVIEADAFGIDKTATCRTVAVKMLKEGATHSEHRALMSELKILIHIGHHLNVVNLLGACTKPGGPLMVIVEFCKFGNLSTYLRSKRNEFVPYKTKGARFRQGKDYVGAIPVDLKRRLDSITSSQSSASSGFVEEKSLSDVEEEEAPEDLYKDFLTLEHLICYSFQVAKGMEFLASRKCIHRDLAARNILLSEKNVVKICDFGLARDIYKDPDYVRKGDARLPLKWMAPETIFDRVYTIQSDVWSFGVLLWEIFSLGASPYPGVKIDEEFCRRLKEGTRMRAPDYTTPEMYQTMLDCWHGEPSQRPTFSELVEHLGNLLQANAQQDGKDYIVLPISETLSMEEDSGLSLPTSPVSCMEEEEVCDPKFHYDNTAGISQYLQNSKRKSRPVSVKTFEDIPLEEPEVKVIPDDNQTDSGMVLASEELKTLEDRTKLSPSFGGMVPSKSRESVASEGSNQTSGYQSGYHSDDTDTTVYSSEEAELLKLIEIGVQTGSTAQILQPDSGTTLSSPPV
T4 sequence (P11362 22-822): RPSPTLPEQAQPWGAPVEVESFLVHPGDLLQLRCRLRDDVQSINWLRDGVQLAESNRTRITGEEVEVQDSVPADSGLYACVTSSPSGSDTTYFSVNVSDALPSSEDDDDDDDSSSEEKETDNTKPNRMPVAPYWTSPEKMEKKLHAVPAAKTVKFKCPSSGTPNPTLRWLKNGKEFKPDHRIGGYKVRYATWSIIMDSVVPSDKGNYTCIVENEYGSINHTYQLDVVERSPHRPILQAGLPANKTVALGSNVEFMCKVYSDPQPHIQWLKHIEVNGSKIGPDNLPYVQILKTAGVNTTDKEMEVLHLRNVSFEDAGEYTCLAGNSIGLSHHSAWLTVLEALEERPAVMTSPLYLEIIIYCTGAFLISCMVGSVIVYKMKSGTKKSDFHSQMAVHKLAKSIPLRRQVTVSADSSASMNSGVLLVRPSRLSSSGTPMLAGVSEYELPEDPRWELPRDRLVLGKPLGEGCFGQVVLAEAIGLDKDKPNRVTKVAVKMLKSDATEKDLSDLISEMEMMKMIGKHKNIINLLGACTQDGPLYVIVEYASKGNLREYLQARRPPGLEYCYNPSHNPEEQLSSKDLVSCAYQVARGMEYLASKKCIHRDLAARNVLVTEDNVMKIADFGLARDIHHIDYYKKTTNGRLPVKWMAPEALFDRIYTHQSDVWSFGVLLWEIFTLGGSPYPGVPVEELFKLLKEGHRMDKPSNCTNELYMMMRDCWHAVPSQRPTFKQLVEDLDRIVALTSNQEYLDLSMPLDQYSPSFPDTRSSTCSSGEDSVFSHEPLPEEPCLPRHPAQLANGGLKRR
T1 sequence (P09619 33-1106): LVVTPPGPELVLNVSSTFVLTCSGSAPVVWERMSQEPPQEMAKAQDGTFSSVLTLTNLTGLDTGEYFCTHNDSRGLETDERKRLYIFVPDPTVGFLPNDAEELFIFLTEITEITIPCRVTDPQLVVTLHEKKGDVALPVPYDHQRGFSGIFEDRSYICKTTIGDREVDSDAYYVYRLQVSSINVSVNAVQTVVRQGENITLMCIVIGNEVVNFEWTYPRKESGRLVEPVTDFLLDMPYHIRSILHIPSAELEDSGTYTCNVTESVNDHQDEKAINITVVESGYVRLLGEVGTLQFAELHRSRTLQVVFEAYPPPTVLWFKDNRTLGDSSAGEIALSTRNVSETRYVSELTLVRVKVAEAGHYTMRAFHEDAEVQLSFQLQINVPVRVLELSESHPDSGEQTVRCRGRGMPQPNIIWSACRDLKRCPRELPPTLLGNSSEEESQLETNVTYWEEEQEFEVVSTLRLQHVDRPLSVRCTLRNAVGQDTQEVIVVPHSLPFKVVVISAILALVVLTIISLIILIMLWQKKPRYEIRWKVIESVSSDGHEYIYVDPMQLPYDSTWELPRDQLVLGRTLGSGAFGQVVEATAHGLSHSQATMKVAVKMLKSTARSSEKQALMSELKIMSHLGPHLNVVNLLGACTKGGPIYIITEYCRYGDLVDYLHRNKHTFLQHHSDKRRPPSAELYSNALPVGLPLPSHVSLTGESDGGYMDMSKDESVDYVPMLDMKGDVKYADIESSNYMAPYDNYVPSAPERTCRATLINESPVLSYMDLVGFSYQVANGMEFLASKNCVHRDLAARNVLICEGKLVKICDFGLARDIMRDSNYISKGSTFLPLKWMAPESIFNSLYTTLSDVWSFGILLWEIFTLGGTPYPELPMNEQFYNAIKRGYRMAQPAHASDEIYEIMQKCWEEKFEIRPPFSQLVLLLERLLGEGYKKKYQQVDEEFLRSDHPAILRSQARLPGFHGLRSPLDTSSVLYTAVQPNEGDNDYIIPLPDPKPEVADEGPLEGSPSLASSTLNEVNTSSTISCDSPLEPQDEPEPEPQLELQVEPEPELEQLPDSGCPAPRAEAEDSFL

Take `COC(=O)c1ccc2c(c1)NC(=O)/C2=C(\Nc1ccc2c(c1)CCN2C(=O)CN1CCN(C)CC1)c1ccccc1` [Compound 1]: the half-maximal inhibitory concentration (IC50) at PDGFRβ was 7.6 nM; at FGFR3, 230 nM; at VEGFR2 it was 17 nM; at FGFR1, 100 nM. Besides, the EC50 in the experiment on HUVEC cells lay in the range of 56 to 84 nM; in the experiment with 3T3 cells it was 60 to 80 nM.

Turning to `COC(=O)c1ccc2c(c1)NC(=O)/C2=C(\Nc1ccc2c(c1)CCN2C(=O)CN1CCOCC1)c1ccc(F)cc1` [Compound 9 hydrochloride, methyl(Z)-3-((4-fluorophenyl)(1-(2-morpholinylacetyl)indolin-5-ylamino)methylene)-2-oxoindoline-6-carboxylate], the figures for the concentration for half-maximal inhibition (IC50) on PDGFRβ, at FGFR3 and at VEGFR2 were 85 nM, 9800 nM and 770 nM, respectively. The EC50 with HUVEC cells fell in the range of 130 to 190 nM.

`CCOC(=O)c1ccc2c(c1)NC(=O)/C2=C(\Nc1ccc2c(c1)CCN2C(=O)CN1CCOCC1)c1ccccc1` [Compound 10 hydrochloride, ethyl(Z)-3-((1-(2-morpholinylacetyl)indolin-5-ylamino)(phenyl)methylene)-2-oxoindoline-6-carboxylate]: the IC50 at PDGFRβ came to 65 nM; on FGFR3 it was 5300 nM; on VEGFR2, 630 nM; on FGFR1 it was 7960 nM. Further, in the experiment on HUVEC cells, the EC50 was 90 to 140 nM.

With `COC(=O)c1ccc2c(c1)NC(=O)/C2=C(\Nc1ccc2c(c1)CCN2C(=O)Cn1cncn1)c1ccccc1` [Compound 13 hydrochloride, methyl(Z)-3-((1-(2-(1H-1,2,4-triazol-1-yl)acetyl)indolin-5-ylamino)(phenyl)methylene)-2-oxoindoline-6-carboxylate], the IC50 on PDGFRβ is 14 nM; at FGFR3, 540 nM; at FGFR1 it was 700 nM. For the same molecule, the EC50 in the experiment on HUVEC cells was 60 to 90 nM.
